Series [1] concerns Arabidopsis thaliana. Description: Arabidopsis growth inhibition assay (24-well plates, green channel pixel value). The following applies: for EC50 / pest or weed control at 100 µg/mL: Arabidopsis thaliana, 240 h; for EC50: read-out: EC50 against Arabidopsis growth; for pest or weed control at 100 µg/mL: read-out: InR (%) against Arabidopsis.
For series [2], the system named is Echinochloa crus-galli. Description: Pre-emergence herbicidal inhibition assay, Petri dish test, EC. The class given is in vivo. The following applies: for EC50: Echinochloa crus-galli, 168 h; for Relative activity ratio (EC root) / Relative activity ratio (EC stalk): relative to FOS. As for the experimental part: (§1) The pre-emergence activity of the compounds against monocot Echinochloa crus-galli (EC) and dicot Brassica napus L. (BN) was evaluated using the standard Petri dish test. The compounds were dissolved in DMF, emulsified with Tween-80 and diluted with water to form stock solutions, each of which was further diluted to a gradient of 100, 50, 25, 10 and 1 mg/L for test. The test solutions were added to Petri dishes lined with a filter paper, on which 10 seeds of EC and BN were placed. After cultured in an intelligent climate chamber with a humidity of 65% at 26 °C for 7 days, the corresponding EC50 values were calculated.

Another series concerns Brassica napus L. Description: Pre-emergence herbicidal inhibition assay, Petri dish test, BN. The class given is in vivo. The conditions noted are these: for EC50: Brassica napus, 168 h; for Relative activity ratio (BN root) / Relative activity ratio (BN stalk): relative to FOS. How it is done:
as §1

The subject of the next series is Amaranthus retroflexus. Description: Post-emergence herbicidal inhibition assay, AR. It counts as in vivo. The following applies: 300 g ai/ha spray, two weeks after treatment; for Loss of Weight (%) AR: fresh weighing. How it is done: (§2) The post-emergence activity of compounds against EC and Amaranthus retroflexus (AR) was determined at a dose of 300 g ai/ha. The model plants initially grow as seedlings, and a few days prior to treatment, five seedlings with similar growth conditions for the plant were transplanted into one pot containing nutrient soil. The test solutions were prepared by dissolving the compounds in water containing DMF and Tween-80 and sprayed when the plant grew to the 1~2 leaf stage. The herbicidal activity was evaluated via visual observation and fresh weighing after two weeks of treatment.

Series [3] concerns the target recombinant E. coli DXR (EcDXR) (Escherichia coli, UniProt P45568). The series can be described thus: biochemical. The conditions noted are these: for inhibition at 100 µM: read-out: InR (%) on DXR enzyme.
Series [4] has as its system Echinochloa crus-galli. The series can be described thus: Post-emergence herbicidal inhibition assay, EC. It counts as in vivo. The following applies: for Loss of Weight (%) EC / Visual Evaluation EC: 300 g ai/ha spray, two weeks after treatment; for Loss of Weight (%) EC: fresh weighing. As for the experimental part:
as §2

In series [5] the test system is Arabidopsis thaliana. The series can be described thus: DMAPP rescue on Arabidopsis. The class given is in vivo. The conditions noted are these: FOS 40 mg/L, 13e 20 mg/L; DMAPP 150 mg/L; t-test. How it is done: The DMAPP rescue on Arabidopsis was conducted using the afore-mentioned culture conditions. […] To one of the two species in each group, an additional 150 μg of DMAPP (Aladdin) was added. After 10 days of cultivation, the green channel pixel values of Arabidopsis in each well were measured. A two-tailed paired Student’s t-test was used to compare the two species within the same group, and p < 0.05 indicates a statistically significant difference.

Where [6] appears, read: root, 7 days, read-out: EC50 EC Root.
Setting [7] is: stalk, 7 days, read-out: EC50 EC Stalk.
[8] abbreviates: root, 7 days, read-out: EC50 BN Root.
Where [9] appears, read: stalk, 7 days, read-out: EC50 BN Stalk.

In brackets after ≈: the same amount, converted by molar mass. Where two headings read alike, the source gives them in different places.

Chain of recombinant E. coli DXR (EcDXR) (P45568 whole entry): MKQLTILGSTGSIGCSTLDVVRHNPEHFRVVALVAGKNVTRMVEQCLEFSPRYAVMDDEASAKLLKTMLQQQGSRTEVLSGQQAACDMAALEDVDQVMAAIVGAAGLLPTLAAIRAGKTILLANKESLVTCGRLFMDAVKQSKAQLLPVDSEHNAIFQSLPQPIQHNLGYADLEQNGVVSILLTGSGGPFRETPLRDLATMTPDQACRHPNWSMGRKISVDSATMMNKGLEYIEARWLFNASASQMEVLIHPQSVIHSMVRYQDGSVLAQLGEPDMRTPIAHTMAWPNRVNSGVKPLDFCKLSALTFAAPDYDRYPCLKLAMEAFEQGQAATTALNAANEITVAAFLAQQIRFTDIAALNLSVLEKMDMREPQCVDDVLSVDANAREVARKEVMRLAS

`Cc1onc(O)c1CC(P(=O)(O)O)P(=O)(O)O` [Compound 13a]: in the series on Arabidopsis thaliana [1], the concentration giving a half-maximal response (EC50) amounted to 21.6 ± 3.8 µg/mL (≈ 75.2 µM) and the pest or weed control at 100 µg/mL came to 100%. Also, in the series with Echinochloa crus-galli [2] (setting [6]), the EC50 stood at 27.1 µg/mL (≈ 94.4 µM). Besides, in the series with Echinochloa crus-galli [2] (setting [7]), the EC50 amounted to 10.2 µg/mL (≈ 35.5 µM). In addition, in the series with Echinochloa crus-galli [2], the “Relative activity ratio (EC root)” value amounted to 1.5 fold and the “Relative activity ratio (EC stalk)” value stood at 3.8 fold. The concentration for a half-maximal effect (EC50) with Brassica napus L. (setting [8]) is 26.9 µg/mL (≈ 93.7 µM). For the same compound, the EC50 with Brassica napus L. (setting [9]) is 8.5 µg/mL (≈ 29.6 µM). In the series on Brassica napus L., the “Relative activity ratio (BN root)” value was 1.3 fold and the “Relative activity ratio (BN stalk)” value turned out to be 3.9 fold. Also, in the series with Amaranthus retroflexus, the “Loss of Weight (%) AR” value came to 52.3% and the “Visual Evaluation AR” value was “++ (“++”: ≥40%)”. Further, in series [3], the IC50 came to 77.9 µM and the inhibition at 100 µM came to 60.2%. Also, in the series with Echinochloa crus-galli [4], the “Loss of Weight (%) EC” value was 35.8% and the “Visual Evaluation EC” value was “+ (“+”: ≥20%)”.
On to `CC(C)c1onc(O)c1CC(P(=O)(O)O)P(=O)(O)O` [Compound 13d], for which, in the series with Arabidopsis thaliana [1], the EC50 is 23.1 ± 1.9 µg/mL (≈ 73.3 µM) and the pest or weed control at 100 µg/mL came to 93.2%. Besides, the EC50 in the series with Echinochloa crus-galli [2] (setting [6]) came to 27.2 µg/mL (≈ 86.3 µM). Moreover, the EC50 in the series with Echinochloa crus-galli [2] (setting [7]) was found to be 13.5 µg/mL (≈ 42.8 µM). In the series on Echinochloa crus-galli [2], the “Relative activity ratio (EC root)” value came to 1.5 fold and the “Relative activity ratio (EC stalk)” value is on record as 2.8 fold. For the same compound, the EC50 in the series on Brassica napus L. (setting [8]) turned out to be 25.2 µg/mL (≈ 80 µM). Further, in the series on Brassica napus L. (setting [9]), the EC50 was 11 µg/mL (≈ 34.9 µM). Besides, in the series with Brassica napus L., the “Relative activity ratio (BN root)” value is 1.4 fold and the “Relative activity ratio (BN stalk)” value is reported as 3.0 fold. Besides, in the series with Amaranthus retroflexus, the “Loss of Weight (%) AR” value stood at 45.7% and the “Visual Evaluation AR” value is “++ (“++”: ≥40%)”. Moreover, the inhibition at 100 µM in series [3] is 14%. For the same compound, in the series on Echinochloa crus-galli [4], the “Loss of Weight (%) EC” value is reported as 34.9% and the “Visual Evaluation EC” value is recorded as “+ (“+”: ≥20%)”.
Compound `CC1(C)CON(CCCC(P(=O)(O)O)P(=O)(O)O)C1=O` [Compound 20] returned a melting point above 250 °C. Also, in the series with Arabidopsis thaliana [1], the EC50 is above 100 µg/mL and the pest or weed control at 100 µg/mL was 47.9%. Besides, the EC50 with Echinochloa crus-galli [2] (setting [6]) stood at 40 µg/mL (≈ 121 µM). In the series with Echinochloa crus-galli [2] (setting [7]), the concentration for a half-maximal effect (EC50) came out at 25.2 µg/mL (≈ 76.1 µM). Besides, in the series with Echinochloa crus-galli [2], the “Relative activity ratio (EC root)” value came to 1.0 fold and the “Relative activity ratio (EC stalk)” value was 1.5 fold. The EC50 in the series with Brassica napus L. (setting [8]) came out at 34.6 µg/mL (≈ 104 µM). For the same compound, the EC50 with Brassica napus L. (setting [9]) came out at 8.2 µg/mL (≈ 24.8 µM). In the series on Brassica napus L., the “Relative activity ratio (BN root)” value is listed as 1.0 fold and the “Relative activity ratio (BN stalk)” value came to 4.0 fold. For the same compound, in the series with Amaranthus retroflexus, the “Loss of Weight (%) AR” value was 23.6% and the “Visual Evaluation AR” value is recorded as “+ (“+”: ≥20%)”. Further, the inhibition at 100 µM in series [3] was 29.5%. Moreover, in the series with Echinochloa crus-galli [4], the “Loss of Weight (%) EC” value came out at 22.9% and the “Visual Evaluation EC” value is “+ (“+”: ≥20%)”.
On to `O=P(O)(O)C(Cc1c(O)noc1C(F)(F)F)P(=O)(O)O` [Compound 13e], for which, in the series with Arabidopsis thaliana [1], the EC50 amounted to 7.8 ± 1.2 µg/mL (≈ 22.9 µM) and the pest or weed control at 100 µg/mL came out at 100%. For the same compound, in the series on Arabidopsis thaliana [1] (from EC50 values), the “fold inhibitory activity on Arabidopsis relative to FOS” value was found to be 3.7 fold. Also, in the series with Arabidopsis thaliana [5], the “rescue of developmental arrest and bleaching by DMAPP (change of pixel values)” value was “did not show a significant increase”. For the same compound, the EC50 in the series with Echinochloa crus-galli [2] (setting [6]) was determined as 7.4 µg/mL (≈ 21.7 µM). The EC50 in the series on Echinochloa crus-galli [2] (setting [7]) is 4.1 µg/mL (≈ 12 µM). In addition, in the series on Echinochloa crus-galli [2], the “Relative activity ratio (EC root)” value is on record as 5.4 fold and the “Relative activity ratio (EC stalk)” value is reported as 9.4 fold. Also, the EC50 in the series on Brassica napus L. (setting [8]) came out at 10.7 µg/mL (≈ 31.4 µM). Besides, the EC50 with Brassica napus L. (setting [9]) is 2.3 µg/mL (≈ 6.74 µM). In the series on Brassica napus L., the “Relative activity ratio (BN root)” value was 3.2 fold and the “Relative activity ratio (BN stalk)” value is 14.3 fold. In addition, in the series with Amaranthus retroflexus, the “Loss of Weight (%) AR” value amounted to 70.3% and the “Visual Evaluation AR” value is reported as “+++ (“+++”: ≥60%)”. Moreover, in series [3], the inhibition at 100 µM came out at 54.9%. Also, in the series with Echinochloa crus-galli [4], the “Loss of Weight (%) EC” value amounted to 53.5% and the “Visual Evaluation EC” value was “++ (“++”: ≥40%)”. In addition, the “fold more active than FOS, inhibition rate on EC via fresh weighing” value in the series with Echinochloa crus-galli [4] (post-emergence, 300 g ai/ha) came out at 1.0 fold.
As for `Cc1onc(O)c1CCP(=O)(O)O` [Compound 6a], in the series with Arabidopsis thaliana [1], the EC50 worked out at 28.6 ± 3.9 µg/mL (≈ 138 µM) and the pest or weed control at 100 µg/mL came out at 90.4%. The EC50 in the series with Echinochloa crus-galli [2] (read-out: EC50 EC Root) stood at 24 µg/mL (≈ 116 µM). The EC50 in the series on Echinochloa crus-galli [2] (read-out: EC50 EC Stalk) came to 18.9 µg/mL (≈ 91.3 µM). Further, in the series on Echinochloa crus-galli [2], the “Relative activity ratio (EC root)” value is 1.7 fold and the “Relative activity ratio (EC stalk)” value came out at 2.0 fold. Besides, the EC50 in the series with Brassica napus L. (read-out: EC50 BN Root) is 17.3 µg/mL (≈ 83.5 µM). Also, the EC50 with Brassica napus L. (read-out: EC50 BN Stalk) turned out to be 10.5 µg/mL (≈ 50.7 µM). Further, in the series on Brassica napus L., the “Relative activity ratio (BN root)” value is recorded as 2.0 fold and the “Relative activity ratio (BN stalk)” value is 3.1 fold. In the series with Amaranthus retroflexus, the “Loss of Weight (%) AR” value is on record as 35.6% and the “Visual Evaluation AR” value is recorded as “+ (“+”: ≥20%)”. The inhibition at 100 µM in series [3] was determined as 15.8%. Also, in the series with Echinochloa crus-galli [4], the “Loss of Weight (%) EC” value is reported as 30.8% and the “Visual Evaluation EC” value is listed as “+ (“+”: ≥20%)”.
Turning to `CC1(C)CON(CCCP(=O)(O)O)C1=O` [Compound 19], the melting point was above 250 °C. For the same compound, in the series on Arabidopsis thaliana [1], the EC50 is above 100 µg/mL and the pest or weed control at 100 µg/mL was found to be 43.2%. In addition, the 50% effective concentration (EC50) in the series with Echinochloa crus-galli [2] (setting [6]) was above 100 µg/mL. Further, in the series on Echinochloa crus-galli [2] (setting [7]), the EC50 was 88 µg/mL (≈ 371 µM). Also, in the series on Echinochloa crus-galli [2], the “Relative activity ratio (EC root)” value was determined as 0.4 fold and the “Relative activity ratio (EC stalk)” value came to 0.4 fold. For the same compound, the EC50 in the series on Brassica napus L. (setting [8]) stood at 79.3 µg/mL (≈ 334 µM). Besides, the EC50 in the series on Brassica napus L. (setting [9]) was 39.2 µg/mL (≈ 165 µM). Besides, in the series on Brassica napus L., the “Relative activity ratio (BN root)” value came to 0.4 fold and the “Relative activity ratio (BN stalk)” value turned out to be 0.8 fold. Besides, the inhibition at 100 µM in series [3] was determined as 22.5%.

Usually EC50 stands for the concentration at which the effect is half-maximal. One may read the IC50 as the concentration that gives 50% inhibition. For orientation: melting point means the temperature, or range, at which the solid turns liquid.

For the origin of these results see paper PMC10673511, “Design, Synthesis and Bioactivity Evaluation of Heterocycle-Containing Mono- and Bisphosphonic Acid Compounds” (Molecules, 2023).
